Test results from ChEMBL document CHEMBL1201862, “PubChem BioAssay data set” (2004).
Active and inactive are the calls of the source.

How the values were obtained:
[1] = target: 5-hydroxytryptamine receptor 1E (Homo sapiens, UniProt P28566); test: Counterscreen assay for S1P3 antagonists: Dose response cell-based high throughput screening assay to identify antagonists of the 5-Hydroxytryptamine Receptor Subtype 1E (5HT1E). [Related pubchem assays: 1429, 485 ]; assay type: functional
[2] = target: Sphingosine 1-phosphate receptor 3 (Homo sapiens, UniProt Q99500); test: Dose response cell-based high throughput screening assay for antagonists of the Sphingosine 1-Phosphate Receptor 3 (S1P3). [Related pubchem assays: 1429, 485 ]; assay type: functional
Chain of Sphingosine 1-phosphate receptor 3 (Q99500 whole entry): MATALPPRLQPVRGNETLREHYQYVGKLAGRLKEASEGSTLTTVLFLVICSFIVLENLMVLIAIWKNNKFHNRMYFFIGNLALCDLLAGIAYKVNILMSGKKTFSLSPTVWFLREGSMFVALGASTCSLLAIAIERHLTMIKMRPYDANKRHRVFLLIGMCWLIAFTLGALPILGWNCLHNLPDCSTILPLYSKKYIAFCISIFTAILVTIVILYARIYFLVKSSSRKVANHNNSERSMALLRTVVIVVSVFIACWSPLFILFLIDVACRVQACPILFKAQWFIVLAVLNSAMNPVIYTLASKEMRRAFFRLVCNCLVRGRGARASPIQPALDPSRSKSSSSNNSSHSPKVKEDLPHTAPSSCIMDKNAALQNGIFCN

cells [3] = test: cells
[4] = HEp-2 cell cytotoxicity, dose response, cytotoxicity control for RSV inhibitor project, HTS (AID 2410); assay type: functional; details: human respiratory syncytial virus
[5] = microbe, parasite or virus in culture; assay type: functional; details: Mycobacterium tuberculosis
Procathepsin L = Procathepsin L (Homo sapiens, UniProt P07711)
Chain of Procathepsin L (P07711 whole entry): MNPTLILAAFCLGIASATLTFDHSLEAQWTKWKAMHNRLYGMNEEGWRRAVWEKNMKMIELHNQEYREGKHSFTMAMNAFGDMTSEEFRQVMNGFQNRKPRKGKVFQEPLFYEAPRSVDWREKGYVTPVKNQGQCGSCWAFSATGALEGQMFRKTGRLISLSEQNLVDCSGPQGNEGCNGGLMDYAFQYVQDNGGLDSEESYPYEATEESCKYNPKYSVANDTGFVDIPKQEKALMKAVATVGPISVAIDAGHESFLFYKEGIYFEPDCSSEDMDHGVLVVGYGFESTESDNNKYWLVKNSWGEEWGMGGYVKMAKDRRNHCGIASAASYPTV

Aspartyl aminopeptidase = target: T1, Aspartyl aminopeptidase (Plasmodium falciparum 3D7, UniProt Q8I2J3)
T1 sequence (Q8I2J3 whole entry): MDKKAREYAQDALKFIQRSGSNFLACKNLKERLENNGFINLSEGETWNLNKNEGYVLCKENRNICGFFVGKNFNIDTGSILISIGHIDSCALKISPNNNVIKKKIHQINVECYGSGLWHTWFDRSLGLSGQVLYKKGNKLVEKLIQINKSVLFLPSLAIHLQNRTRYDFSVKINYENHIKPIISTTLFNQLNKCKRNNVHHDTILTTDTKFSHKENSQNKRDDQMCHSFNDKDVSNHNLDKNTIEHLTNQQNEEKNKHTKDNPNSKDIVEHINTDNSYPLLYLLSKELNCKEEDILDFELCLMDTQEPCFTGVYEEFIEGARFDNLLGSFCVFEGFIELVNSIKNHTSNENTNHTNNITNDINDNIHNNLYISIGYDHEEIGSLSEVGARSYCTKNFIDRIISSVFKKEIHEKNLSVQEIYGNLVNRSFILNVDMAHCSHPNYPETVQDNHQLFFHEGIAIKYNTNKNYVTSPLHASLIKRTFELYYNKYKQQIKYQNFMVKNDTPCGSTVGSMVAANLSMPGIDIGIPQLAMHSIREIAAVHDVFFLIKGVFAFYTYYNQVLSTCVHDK

[6] = inhibitors of Bluetongue virus cytopathic effect, confirmation, arbovirus, BSR cells (AID 1250); assay type: functional;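 also: protection from viral cytopathic effect measured as cell viability by ATP luminescence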
[7] = target: T2, Heat shock factor protein 1 (Mus musculus, UniProt P38532); test: inhibition of MG132-induced HSE-luciferase signal, confirmation, cell-based, NIH3T3, luminescence, dose retest (AID 2382); assay type: functional;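 also: NIH3T3 fibroblasts with HSF1-driven luciferase reporter stressed by proteasome inhibitor MG132; luminescence from HSF1-driven luciferase expression after 8 hours of MG132 stress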
T2 sequence (P38532 whole entry): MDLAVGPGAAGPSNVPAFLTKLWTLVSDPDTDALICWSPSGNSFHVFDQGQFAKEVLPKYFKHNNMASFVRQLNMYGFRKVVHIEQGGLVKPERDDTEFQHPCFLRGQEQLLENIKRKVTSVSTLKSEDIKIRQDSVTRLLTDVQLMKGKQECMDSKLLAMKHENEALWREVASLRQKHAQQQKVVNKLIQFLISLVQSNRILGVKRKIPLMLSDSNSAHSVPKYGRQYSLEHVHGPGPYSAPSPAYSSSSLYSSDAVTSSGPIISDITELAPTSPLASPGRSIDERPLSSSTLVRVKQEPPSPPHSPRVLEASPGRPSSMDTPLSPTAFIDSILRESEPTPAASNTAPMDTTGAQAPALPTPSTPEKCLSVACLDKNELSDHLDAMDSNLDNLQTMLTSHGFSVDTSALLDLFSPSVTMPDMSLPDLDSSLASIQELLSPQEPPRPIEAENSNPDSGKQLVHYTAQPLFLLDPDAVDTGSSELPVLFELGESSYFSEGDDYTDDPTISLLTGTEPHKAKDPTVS

[8] = target: Disintegrin and metalloproteinase domain-containing protein 17 (Homo sapiens, UniProt P78536); test: ADAM17 protease inhibitors, dose response, counter-screen for ADAM10 exosite inhibitor project, biochemical, quenched FRET substrate (AID 743253)
Chain of Disintegrin and metalloproteinase domain-containing protein 17 (P78536 whole entry, the tested form may be a part): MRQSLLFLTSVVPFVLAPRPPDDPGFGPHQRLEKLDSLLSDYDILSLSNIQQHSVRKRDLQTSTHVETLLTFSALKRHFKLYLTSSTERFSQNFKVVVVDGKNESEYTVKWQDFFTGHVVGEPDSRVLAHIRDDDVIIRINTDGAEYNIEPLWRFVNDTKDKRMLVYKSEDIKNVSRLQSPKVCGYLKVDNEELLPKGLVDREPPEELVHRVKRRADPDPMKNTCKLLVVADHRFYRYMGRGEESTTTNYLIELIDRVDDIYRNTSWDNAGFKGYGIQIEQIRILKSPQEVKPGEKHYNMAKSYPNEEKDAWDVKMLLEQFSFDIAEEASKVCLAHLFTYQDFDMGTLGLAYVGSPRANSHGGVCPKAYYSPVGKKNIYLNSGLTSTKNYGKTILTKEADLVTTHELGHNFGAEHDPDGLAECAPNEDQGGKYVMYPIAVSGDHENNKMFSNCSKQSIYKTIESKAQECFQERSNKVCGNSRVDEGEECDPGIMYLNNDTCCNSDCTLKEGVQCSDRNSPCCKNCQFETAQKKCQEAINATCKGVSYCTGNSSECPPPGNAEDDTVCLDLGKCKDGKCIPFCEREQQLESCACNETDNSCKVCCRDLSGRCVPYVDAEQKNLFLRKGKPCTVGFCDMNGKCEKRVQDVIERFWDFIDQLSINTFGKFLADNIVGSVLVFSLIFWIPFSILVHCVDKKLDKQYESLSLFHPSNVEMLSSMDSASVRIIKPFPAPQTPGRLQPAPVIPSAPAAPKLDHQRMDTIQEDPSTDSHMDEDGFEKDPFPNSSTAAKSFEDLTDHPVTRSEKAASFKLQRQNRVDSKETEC

[9] = A High Throughput Confirmatory Assay used to Identify Novel Compounds that Inhibit Mycobacterium Tuberculosis in the absence of Glycerol.; assay type: functional
[10] = ADAM10 inhibitors, peptide cleavage, dose response, biochemical, QFRET (AID 743254);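 also: ADAM10 enzyme with the DM2 quenched FRET peptide as substrate; EDANS fluorescence gain as the protease cuts the substrate; inhibitor potency against ADAM10 proteolytic activity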
cells [11] = assay type: functional
[12] = target: Lysosomal acid glucosylceramidase (Homo sapiens, UniProt P04062); test: Dose response cell-based high throughput screening assay to identify enhancers of beta-glucosidase activity. [Related pubchem assays: 784 ]; assay type: functional
Chain of Lysosomal acid glucosylceramidase (P04062 whole entry): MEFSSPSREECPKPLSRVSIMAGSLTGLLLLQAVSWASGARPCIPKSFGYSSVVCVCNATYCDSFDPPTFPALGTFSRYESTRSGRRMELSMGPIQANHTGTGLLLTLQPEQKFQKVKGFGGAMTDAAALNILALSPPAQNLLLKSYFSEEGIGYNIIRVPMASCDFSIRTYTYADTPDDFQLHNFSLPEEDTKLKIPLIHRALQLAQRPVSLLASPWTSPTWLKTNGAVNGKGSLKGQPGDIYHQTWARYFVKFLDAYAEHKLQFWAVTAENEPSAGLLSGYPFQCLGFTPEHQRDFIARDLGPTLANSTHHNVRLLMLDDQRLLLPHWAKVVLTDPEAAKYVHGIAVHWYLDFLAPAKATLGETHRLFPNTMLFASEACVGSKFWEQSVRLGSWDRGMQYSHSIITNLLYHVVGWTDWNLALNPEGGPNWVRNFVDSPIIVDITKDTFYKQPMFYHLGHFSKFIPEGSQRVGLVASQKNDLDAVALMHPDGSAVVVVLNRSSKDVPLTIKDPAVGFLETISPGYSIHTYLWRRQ

[13] = target: Melanin-concentrating hormone receptor 1 (Homo sapiens, UniProt Q99705); test: Fluorescence-based counterscreen for antagonists of the G-protein coupled receptor 7 (GPR7): cell-based high throughput dose response assay to identify antagonists of the melanin-concentrating hormone receptor 1 (MCHR1).; assay type: functional
Chain of Melanin-concentrating hormone receptor 1 (Q99705 whole entry): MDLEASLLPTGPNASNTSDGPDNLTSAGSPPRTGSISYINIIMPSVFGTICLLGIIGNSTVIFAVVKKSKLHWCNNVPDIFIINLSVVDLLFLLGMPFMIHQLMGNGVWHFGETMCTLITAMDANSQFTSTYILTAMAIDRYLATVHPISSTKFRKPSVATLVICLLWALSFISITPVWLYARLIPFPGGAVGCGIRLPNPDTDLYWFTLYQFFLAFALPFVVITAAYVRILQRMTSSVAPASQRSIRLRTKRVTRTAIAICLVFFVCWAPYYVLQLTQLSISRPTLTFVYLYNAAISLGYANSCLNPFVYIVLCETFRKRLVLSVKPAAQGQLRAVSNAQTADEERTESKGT

[14] = target: Neuropeptides B/W receptor type 1 (Homo sapiens, UniProt P48145); test: Fluorescence-based dose response cell-based high throughput screening assay to identify antagonists of the G-protein coupled receptor 7 (GPR7). [Related pubchem assays: 1952 (Screening assay (GPR7 antagonists).), 1880 (Summary AID.)]; assay type: functional
Chain of Neuropeptides B/W receptor type 1 (P48145 whole entry): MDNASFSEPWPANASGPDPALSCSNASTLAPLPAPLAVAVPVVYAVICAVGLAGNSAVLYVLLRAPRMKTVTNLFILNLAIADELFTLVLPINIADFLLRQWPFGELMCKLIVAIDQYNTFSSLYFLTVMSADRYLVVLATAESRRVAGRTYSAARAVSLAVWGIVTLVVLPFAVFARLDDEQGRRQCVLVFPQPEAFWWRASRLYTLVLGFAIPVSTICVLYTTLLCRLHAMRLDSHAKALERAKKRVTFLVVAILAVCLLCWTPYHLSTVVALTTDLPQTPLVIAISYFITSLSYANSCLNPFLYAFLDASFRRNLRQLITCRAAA

HEK293 = test: Fluorescence-based counterscreen for potentiators or agonists of NPY-Y2: cell-based high-throughput dose response assay to identify inhibitors of cyclic nucleotide gated ion channel (CNGC) activity. In this assay, the parental HEK293 cell line transfected with a cyclic-nucleotide gated ion channel (CNGC)-based cAMP sensor is used to measure inhibition of isoproterenol-induced CNGC activity by test compound.; assay type: functional; details: Homo sapiens;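 also: stimulus is 1 µM isoproterenol at EC100 plus PDE inhibitor Ro 20-1724 at 25 µM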
[15] = target: Neuropeptide Y receptor type 2 (Homo sapiens, UniProt P49146); test: Fluorescence-based cell-based high-throughput dose response assay for agonists of NPY-Y2. [Related pubchem assays: 1703 (Screening assay (CNGC inhibitors).), 1359 (Screening assay (NPY-Y2 potentiators or agonists).), 1304 (Screening assay (NPY-Y1 potentiators or agonists).), 1710 (Screening assay (NPY-Y2 agonists).), 1791 (Summary AID.)]; assay type: functional
Chain of Neuropeptide Y receptor type 2 (P49146 whole entry): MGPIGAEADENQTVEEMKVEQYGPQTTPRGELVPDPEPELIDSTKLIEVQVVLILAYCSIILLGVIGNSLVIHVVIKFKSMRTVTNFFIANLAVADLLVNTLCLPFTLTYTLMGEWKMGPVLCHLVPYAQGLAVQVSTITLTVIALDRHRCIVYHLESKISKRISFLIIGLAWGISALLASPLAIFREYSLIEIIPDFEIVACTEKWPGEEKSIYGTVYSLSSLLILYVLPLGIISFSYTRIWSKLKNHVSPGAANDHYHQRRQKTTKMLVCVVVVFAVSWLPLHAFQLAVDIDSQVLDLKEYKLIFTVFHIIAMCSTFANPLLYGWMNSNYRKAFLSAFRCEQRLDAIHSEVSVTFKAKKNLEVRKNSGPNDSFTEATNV

[16] = target: Neuropeptide Y receptor type 1 (Homo sapiens, UniProt P25929); test: Fluorescence-based counterscreen for agonists of NPY-Y2: cell-based high-throughput dose response assay for agonists of NPY-Y1.; assay type: functional
Chain of Neuropeptide Y receptor type 1 (P25929 whole entry): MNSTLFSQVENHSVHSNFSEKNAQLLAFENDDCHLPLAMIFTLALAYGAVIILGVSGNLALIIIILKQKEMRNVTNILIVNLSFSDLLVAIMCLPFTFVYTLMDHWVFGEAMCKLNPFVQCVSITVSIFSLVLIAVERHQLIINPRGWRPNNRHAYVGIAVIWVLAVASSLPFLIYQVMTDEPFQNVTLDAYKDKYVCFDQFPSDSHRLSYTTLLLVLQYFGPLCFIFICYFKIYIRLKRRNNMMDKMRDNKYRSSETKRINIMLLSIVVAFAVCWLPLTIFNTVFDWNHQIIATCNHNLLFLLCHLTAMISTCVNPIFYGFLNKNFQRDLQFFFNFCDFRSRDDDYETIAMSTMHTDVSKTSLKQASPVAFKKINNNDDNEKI

[17] = target: T3, Mannose-6-phosphate isomerase (Homo sapiens, UniProt P34949); test: human PMI inhibitors, high substrate, primary screen, biochemical, fluorescence intensity, high mannose 6-phosphate (AID 1220)
T3 sequence (P34949 whole entry): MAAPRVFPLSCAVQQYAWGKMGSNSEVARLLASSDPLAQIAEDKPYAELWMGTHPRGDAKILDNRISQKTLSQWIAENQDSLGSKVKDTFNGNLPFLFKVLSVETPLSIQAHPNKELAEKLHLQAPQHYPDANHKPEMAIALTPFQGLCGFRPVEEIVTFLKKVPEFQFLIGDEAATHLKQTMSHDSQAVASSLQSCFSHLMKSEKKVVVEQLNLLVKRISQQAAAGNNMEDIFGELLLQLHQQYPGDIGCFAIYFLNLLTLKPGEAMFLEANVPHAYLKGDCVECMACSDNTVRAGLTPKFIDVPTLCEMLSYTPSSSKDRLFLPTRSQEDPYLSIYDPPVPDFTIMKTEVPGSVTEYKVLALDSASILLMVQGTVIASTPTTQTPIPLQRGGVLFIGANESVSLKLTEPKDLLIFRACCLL

Protein RecA = target: T4, Protein RecA (Mycobacterium tuberculosis, UniProt P9WHJ3); test: Fluorescence Cell-Free Homogeneous Dose Retest to Identify Inhibitors of RecA-Intein Splicing Activity. [Related pubchem assays (depositor defined):AID2097, AID2223, AID489010, AID492950]; assay type: functional
T4 sequence (P9WHJ3 whole entry): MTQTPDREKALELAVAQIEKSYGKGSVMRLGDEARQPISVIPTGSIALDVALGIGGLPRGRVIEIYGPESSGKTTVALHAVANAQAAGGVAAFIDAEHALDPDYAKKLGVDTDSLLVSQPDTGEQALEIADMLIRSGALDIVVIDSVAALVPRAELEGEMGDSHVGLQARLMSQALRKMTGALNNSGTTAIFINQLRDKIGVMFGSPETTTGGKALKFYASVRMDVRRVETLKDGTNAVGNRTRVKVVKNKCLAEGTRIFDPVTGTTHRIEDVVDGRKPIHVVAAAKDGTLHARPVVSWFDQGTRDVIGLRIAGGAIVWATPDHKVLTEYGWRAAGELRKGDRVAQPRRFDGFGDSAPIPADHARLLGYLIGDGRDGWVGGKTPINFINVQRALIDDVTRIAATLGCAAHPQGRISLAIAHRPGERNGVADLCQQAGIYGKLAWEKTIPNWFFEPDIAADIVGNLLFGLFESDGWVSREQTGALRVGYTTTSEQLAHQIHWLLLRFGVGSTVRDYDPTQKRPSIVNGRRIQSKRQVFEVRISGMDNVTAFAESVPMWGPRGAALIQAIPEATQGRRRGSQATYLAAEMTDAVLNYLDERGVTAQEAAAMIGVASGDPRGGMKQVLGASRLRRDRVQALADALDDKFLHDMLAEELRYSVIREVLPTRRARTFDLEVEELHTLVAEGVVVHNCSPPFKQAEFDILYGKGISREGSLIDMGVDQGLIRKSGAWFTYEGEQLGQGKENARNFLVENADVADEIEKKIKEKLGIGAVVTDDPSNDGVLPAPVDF

[18] = THP-1 cell cytotoxicity, dose response, cytotoxicity control for non-replicating M. tuberculosis project (AID 489025); assay type: functional
[19] = target: T5, Replicative DNA helicase DnaB (Mycobacterium tuberculosis, UniProt P9WMR3); test: DnaB intein splicing inhibitors, dose response, biochemical, cell-free fluorescence (AID 449749); assay type: functional
T5 sequence (P9WMR3 whole entry): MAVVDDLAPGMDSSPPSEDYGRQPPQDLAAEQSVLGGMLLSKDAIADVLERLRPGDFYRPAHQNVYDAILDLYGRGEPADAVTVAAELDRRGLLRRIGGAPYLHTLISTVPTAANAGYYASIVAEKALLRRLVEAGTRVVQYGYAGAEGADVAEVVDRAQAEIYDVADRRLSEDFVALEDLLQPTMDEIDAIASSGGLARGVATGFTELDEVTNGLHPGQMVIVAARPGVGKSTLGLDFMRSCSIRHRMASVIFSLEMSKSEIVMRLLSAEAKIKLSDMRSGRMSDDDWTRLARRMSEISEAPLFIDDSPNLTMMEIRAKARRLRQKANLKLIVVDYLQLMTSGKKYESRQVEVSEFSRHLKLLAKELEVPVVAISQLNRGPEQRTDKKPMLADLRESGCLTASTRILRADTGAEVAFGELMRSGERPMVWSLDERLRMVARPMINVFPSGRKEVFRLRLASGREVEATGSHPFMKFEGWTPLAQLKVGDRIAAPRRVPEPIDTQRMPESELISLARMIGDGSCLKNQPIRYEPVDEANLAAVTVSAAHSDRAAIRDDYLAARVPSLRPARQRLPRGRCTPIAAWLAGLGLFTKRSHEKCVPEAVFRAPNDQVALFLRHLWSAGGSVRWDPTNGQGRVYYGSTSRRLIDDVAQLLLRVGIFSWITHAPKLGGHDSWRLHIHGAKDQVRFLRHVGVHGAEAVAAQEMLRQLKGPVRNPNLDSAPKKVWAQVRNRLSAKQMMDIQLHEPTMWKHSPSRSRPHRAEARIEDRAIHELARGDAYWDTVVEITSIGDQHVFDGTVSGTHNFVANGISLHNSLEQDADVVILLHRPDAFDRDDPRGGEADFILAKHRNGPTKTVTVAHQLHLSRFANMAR

[20] = target: T3, Mannose-6-phosphate isomerase; test: inhibitors of human PMI, primary screen, biochemical, fluorescence intensity, coupled assay (AID 1209)

Chain of 5-hydroxytryptamine receptor 1E (P28566 whole entry): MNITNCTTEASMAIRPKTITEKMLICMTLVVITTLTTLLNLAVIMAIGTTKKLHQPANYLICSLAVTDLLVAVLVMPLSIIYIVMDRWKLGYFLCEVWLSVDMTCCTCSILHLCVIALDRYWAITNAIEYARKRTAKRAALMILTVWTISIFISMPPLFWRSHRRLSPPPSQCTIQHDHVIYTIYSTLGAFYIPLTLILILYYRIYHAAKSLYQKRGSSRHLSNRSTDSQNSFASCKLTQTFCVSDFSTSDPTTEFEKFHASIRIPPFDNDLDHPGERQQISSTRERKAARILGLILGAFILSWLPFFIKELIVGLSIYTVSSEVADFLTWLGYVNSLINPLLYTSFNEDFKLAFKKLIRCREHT

Question: For `C=CCN1CCN(C(c2ccc(Cl)cc2)c2nnnn2CCc2ccc(OC)c(OC)c2)CC1` (centres undefined), which IC50 [1] is on record?
Answer: > 50 µM (not active)

Question: What about the IC50 [2] of the same compound?
Answer: > 50 µM (not active)

Question: Which IC50 (cells [3]) does the source give for `COc1ccc(C(C[N+](=O)[O-])c2c(-c3ccccc3)cc3ccccn23)c(OC)c1` (centres undefined) here?
Answer: 36.3 µM (active)

Question: And the CC50 [4]?
Answer: > 50 µM (active)

Question: What about the CC50 [5] of the same compound?
Answer: 20.3 µM (active)

Question: Which results are given for `Cc1cccc(N=C(S)Nn2cnnc2)c1C`?
Answer: IC50 (Procathepsin L): > 59.6 µM (not active); IC50 (Aspartyl aminopeptidase): 1.9 µM (active)

Question: For `COc1ccc2ccccc2c1/C=N/N1C(=O)CSC1=S`, which IC50 [6] is on record?
Answer: 21.1 µM (active)

Question: And the EC50 [7]?
Answer: > 195 µM (not active)

Question: With `Cc1cccc(OCC(=O)NNC(=O)c2cc3ccccc3oc2=O)c1` as the compound, how does the IC50 [8] read?
Answer: > 69.5 µM (inactive)

Question: And the IC50 [9]?
Answer: > 100 µM (active)

Question: What about the IC50 [10] of the same compound?
Answer: > 69.5 µM (inactive)

Question: And the IC50 (cells [11])?
Answer: 19.4 µM (active)

Question: With `COC(=O)c1cn(-c2ccccc2)nc1-c1cccnc1` as the compound, how does the EC50 [12] read?
Answer: > 50 µM (not active)

Question: Which IC50 [13] does the source give for `CCOC(=O)c1c[nH]nc1N=C(S)Nc1ccc(OC)cc1` here?
Answer: > 14.6 µM (not active)

Question: And the IC50 [14]?
Answer: > 43.8 µM (not active)

Question: Which results are given for `COc1ccc(COC(=O)c2ccc3c(=O)n4c(nc3c2)CCC4)cc1F`?
Answer: EC50 (HEK293): > 35.4 µM (not active); EC50 [15]: > 35.4 µM (not active); EC50 [16]: > 35.4 µM (not active)

Question: Which IC50 [17] does the source give for `O=Cc1ccnc(-c2ccc(OC(=O)c3ccco3)cc2)n1` here?
Answer: 6.56 µM (active)

Question: What about the EC50 (Protein RecA) of the same compound?
Answer: 16.8 µM (active)

Question: What about the CC50 [18] of the same compound?
Answer: > 40 µM (active)

Question: What about the AC50 [19] of the same compound?
Answer: 5.71 µM (active)

Question: What about the IC50 [20] of the same compound?
Answer: 7.4 µM (active)
